Measured values from ChEMBL document CHEMBL5233205, “VISTA inhibitors in cancer immunotherapy: a short perspective on recent progresses” (RSC Med Chem, 2021).
Values belong to the compound of their own block, whether it stands above or below them. Positions of bridges follow the written chain, without caps; N, C: chain ends. Non-standard residues stand in square brackets, D forms with d. Residues, ends and D or L forms follow the SMILES beside them. *: point of attachment. X1 = N[C@@H](CO)C(=O)N[C@@H](Cc1ccccc1)C(=O)NCCCCN*; NMeT = CN[C@H](C(=O)O)[C@@H](C)O

Columns and labels:
Splenocyte [1] = assay: Cytoprotective activity against anti-CD3/CD28 stimulated mouse splenocyte assessed as rescue of cell proliferation at 100 nM incubated for 72 hrs by CFSE staining based flow cytometric analysis; format: functional
Splenocyte [2] = assay: Cytoprotective activity against anti-CD3/CD28 stimulated mouse splenocyte assessed as rescue of PD-L1 stimulated inhibition of proliferation at 100 nM incubated for 72 hrs by CFSE staining based flow cytometric analysis; design: scale not given: the % may be the effect or the level left
B16-F10 = assay: Antimetastatic activity against mouse B16-F10 cells implanted in C57BL/6 mouse assessed as decrease in lung metastasis at 5 mg/kg,sc and measured after 14 days; format: functional; design: scale not given: the % may be the effect or the level left; conditions: time 14 day
Splenocyte [3] = assay: Cytoprotective activity against anti-CD3/CD28 stimulated mouse splenocyte co-cultured with MDA-MB-231 cells overexpressing PD-L1 assessed as rescue of cell proliferation at 100 nM incubated for 72 hrs by CFSE staining based flow cytometric analysis relative to control; format: functional
[4] = target: Programmed cell death 1 ligand 1 (Homo sapiens, UniProt Q9NZQ7); assay: Inhibition of His-tagged human recombinant PD-L1 incubated for 15 mins by LANCE Ultra TR-FRET assay
[5] = target: T1, V-type immunoglobulin domain-containing suppressor of T-cell activation (Homo sapiens, UniProt Q9H7M9); assay: Inhibition of VISTA (unknown origin) incubated for 15 mins by LANCE Ultra TR-FRET assay
T1 sequence (Q9H7M9 whole entry): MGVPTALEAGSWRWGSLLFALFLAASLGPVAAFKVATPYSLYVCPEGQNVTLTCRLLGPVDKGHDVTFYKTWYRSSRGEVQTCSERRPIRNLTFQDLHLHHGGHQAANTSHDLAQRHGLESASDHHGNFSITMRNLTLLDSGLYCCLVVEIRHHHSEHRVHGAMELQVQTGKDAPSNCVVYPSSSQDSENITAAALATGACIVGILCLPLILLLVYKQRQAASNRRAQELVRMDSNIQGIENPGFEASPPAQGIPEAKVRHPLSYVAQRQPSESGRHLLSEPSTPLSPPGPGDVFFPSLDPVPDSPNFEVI

[6] = Half life in mouse liver microsomes at 1 uM by LC-MS/MS analysis; format: ADME, Microsome
[7] = target: T1, V-type immunoglobulin domain-containing suppressor of T-cell activation; assay: Binding affinity to recombinant human His-tagged VISTA ECD incubated for 2 hrs by TR-FRET assay
[8] = target: T1, V-type immunoglobulin domain-containing suppressor of T-cell activation; assay: Binding affinity to recombinant human VISTA ECD incubated for 2 hrs by ELISA assay

Sequence of Programmed cell death 1 ligand 1 (Q9NZQ7 whole entry, the tested form may be a part): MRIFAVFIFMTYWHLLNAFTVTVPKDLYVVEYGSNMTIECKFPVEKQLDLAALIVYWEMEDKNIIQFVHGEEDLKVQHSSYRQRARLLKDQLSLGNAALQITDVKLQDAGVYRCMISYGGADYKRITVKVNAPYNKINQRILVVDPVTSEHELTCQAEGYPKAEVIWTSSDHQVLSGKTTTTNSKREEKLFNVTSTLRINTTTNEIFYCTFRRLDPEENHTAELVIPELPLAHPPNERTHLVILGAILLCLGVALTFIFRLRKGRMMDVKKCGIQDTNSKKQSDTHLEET

Compound: C[C@H](O)[C@H](NC(=O)N[C@@H](CC(N)=O)c1nc([C@@H](N)CCCCN)no1)C(=O)O
Activity (Splenocyte [1]): 50% | Activity (Splenocyte [2]): 96%

Compound: NCCCC[C@H](NC(=O)N[C@@H](CC(N)=O)C(=O)NNC(=O)[C@@H](N)CO)C(=O)O
Activity (Splenocyte [1]): 87%

Compound: C[C@@H](O)[C@H](NC(=O)[C@H](CCC(N)=O)NC(=O)[C@@H](N)CO)C(=O)N[C@@H](CO)C(=O)N[C@@H](CCC(=O)NCCCCNC(=O)[C@H](Cc1ccccc1)NC(=O)[C@@H](N)CO)C(N)=O (H-SQTSE(X1)-NH2)
Activity (B16-F10): 64%

Compound: C[C@H](O)[C@@H]1NC(=O)N[C@@H](CC(N)=O)C(=O)NNC(=O)[C@H](CO)NC(=O)COCCOCCNC1=O
Activity (Splenocyte [1]): 87%

Compound: CCCNC(=O)CC[C@H](NC(=O)N[C@H](C(=O)O)[C@H](C)O)c1nc([C@@H](N)CO)no1
Activity (Splenocyte [1]): <50% | Activity (Splenocyte [2]): 119%

Compound: C[C@@H](O)[C@H]1C(=O)N[C@@H](CO)C(=O)N[C@H](C(=O)N[C@@H](CO)C(=O)N[C@@H](Cc2ccccc2)C(N)=O)CCCCNC(=O)CC[C@H](NC(=O)[C@@H](N)CO)C(=O)N1C (H-SE[NMeT]SKSF-NH2; lactam 2-5)
Activity (Splenocyte [1]): 82%

EC50 [5]: 82.9 nM
Compound: C[C@H](O)[C@H](NC(=O)N[C@@H](CC(N)=O)c1nc([C@@H](N)CO)no1)C(=O)O
Activity (Splenocyte [3]): 89% | EC50 [4]: 66.1 nM | Activity (Splenocyte [1]): 97% | Activity (Splenocyte [2]): >70%

half-life at 1 µM [6]: > 1.5 h
Compound: CC[C@H](C)[C@H](NC(=O)[C@H](CCC(N)=O)NC(=O)[C@H](C)NC(=O)[C@H](CCCCN)NC(=O)[C@@H]1CCCN1C(=O)[C@H](C)NC(=O)[C@H](CC(C)C)NC(=O)[C@H](CCC(N)=O)NC(=O)[C@@H](NC(=O)[C@@H](NC(=O)[C@H](CCCNC(=N)N)NC(=O)[C@H](Cc1ccccc1)NC(=O)[C@H](CCCCN[C@@H](Cc1ccccc1)C(=O)N[C@@H](CO)C(=O)N[C@@H](CCC(=O)O)C(=O)N[C@@H](CO)C(=O)N[C@H](C(=O)N[C@@H](CC(N)=O)C(=O)N[C@@H](CO)C(=O)O)[C@@H](C)O)NC(=O)[C@H](Cc1ccccc1)NC(=O)[C@H](CO)NC(=O)[C@H](CCC(=O)O)NC(=O)[C@H](CO)NC(=O)[C@@H](NC(=O)[C@H](CC(N)=O)NC(=O)[C@@H](N)CO)[C@@H](C)O)C(C)C)[C@@H](C)O)C(=O)N[C@@H](CCCCN)C(=O)N[C@@H](CCC(=O)O)C(=O)O

Compound: C[C@H](O)[C@H](NC(=O)N[C@@H](CC(N)=O)c1nc(C2(N)CCCCC2)no1)C(=O)O
Activity (Splenocyte [1]): 86%

Compound: C[C@@H](O)[C@@H]1NC(=O)[C@@H](NC(=O)[C@@H](N)CO)CCCCNC(=O)CC[C@@H](C(=O)N[C@@H](CO)C(=O)N[C@@H](Cc2ccccc2)C(N)=O)NC(=O)[C@H](CO)NC1=O (H-SKTSESF-NH2; lactam 2-5)
Activity (Splenocyte [3]): 60%

IC50 [7]: 4800 nM | IC50 [8]: 9700 nM
Compound: CN(C)c1n/c(=N\Cc2ccco2)ss1
